# In patent publication US5750702A (priority 1996, dated 1998):
# Target: GABAa receptor
# Assay: GABAa receptor binding assay (displacement of 3H-RO15-1788 [3H-Flumazenil], rat cortical tissue)
# Conditions: Table 2, 0.5 nM 3H-RO15-1788, 30 min at 4° C., nonspecific binding with diazepam
# Protocol: The pharmaceutical utility of compounds of this invention are indicated by the following assay for GABAa receptor binding activity.
# Assays are carried out as described in Thomas and Tallman (J. Bio. Chem. 156: 9838-9842 J. Neurosci. 3: 433-440, 1983). Rat cortical tissue is dissected and homogenized in 25 volumes (w/v) of 0.05M Tris HCl buffer (pH 7.4 at 4° C.). The tissue homogenate is centrifuged in the cold (4°) at 20,000×g for 20'. The supernatant is decanted and the pellet is rehomogenized in the same volume of buffer and again centrifuged at 20,000×g. The supernatant is decanted and the pellet is frozen at -20° C. overnight. The pellet is then thawed and rehomogenized in 25 volume (original wt/vol) of buffer and the procedure is carried out twice. The pellet is finally resuspended in 50 volumes (w/vol of 0.05M Tris HCl buffer (pH 7.4 at […]).
# Incubations contain […] of tissue homogenate, […] of radioligand 0.5 nM (^3 H-RO15-1788 [^3 H-Flumazenil] specific activity 80 Ci/mmol), drug or blocker and buffer to a total volume of […]. Incubations are carried for 30 min at 4° C. then are rapidly filtered through GFB filters to separate free and bound ligand. Filters are washed twice with fresh 0.05M Tris HCl buffer (pH 7.4 at 4° C.) and counted in a liquid scintillation counter. 1.0 mM diazepam is added to some tubes to determine nonspecific binding. Data are collected in triplicate determinations, averaged and % inhibition of total specific binding is calculated. Total Specific Binding=Total-Nonspecific. In some cases, the amounts of unlabeled drugs is varied and total displacement curves of binding are carried out. Data are converted to Ki values.
row,SMILES,Ki
1,"COc1ccc(NC(=O)c2c[nH]c3c2C(=O)CCC3)c(F)c1 [Compound 6, N-(2-Fluoro-4-methoxyphenyl)-4-oxo-4,5,6,7-tetrahydro-1H-indole-3-carboxamide]",1 nM
2,"COc1ccc(NC(=O)c2c[nH]c3cccc(OCc4ccccc4)c23)c(F)c1 [Compound 14, N-(2-Fluoro-4-methoxyphenyl)-4-benzyloxy-1H-indole-3-carboxamide]",133 nM
3,"COc1ccc(NC(=O)c2c[nH]c3cccc(O)c23)c(F)c1 [Compound 2, N-(2-fluoro-4-methoxyphenyl)-4-hydroxy-1H-indole-3-carboxamide]",430 nM
4,"CC(=O)Nc1ccc(NC(=O)c2c[nH]c3c2C(=O)CCC3)cc1 [Compound 12, N-(4-Acetamidophenyl)-4-oxo-4,5,6,7-tetrahydro-1H-indole-3-carboxamide]",28 nM
5,"COc1ccc(NC(=O)c2c[nH]c3cccc(OC)c23)cc1 [Compound 8, N-(4-Methoxyphenyl)-4-methoxy-1H-indole-3-carboxamide]",25 nM
6,"COc1ccc(NC(=O)c2c[nH]c3c2C(=O)CCC3)cc1 [Compound 1, N-(4-methoxyphenyl)-4-oxo-4,5,6,7-tetrahydro-1H-indole-3-carboxamide]",4 nM

# Same assay, conditions: Table 3, 0.5 nM 3H-RO15-1788, 30 min at 4° C., nonspecific binding with diazepam
row,SMILES,Ki
1,"CC(C)Oc1ccc(NC(=O)c2c[nH]c3c2C(=O)CCC3)cc1 [Compound 22, N-(4-Isopropoxyphenyl)-4-oxo-4,5,6,7-tetrahydro-1H-indole-3-carboxamide]",53 nM
2,"CC1(C)CCc2[nH]cc(C(=O)Nc3ccccc3)c2C1=O [Compound 80, N-Phenyl-4-oxo-5,5-dimethyl-4,5,6,7-tetrahydro-1H-indole-3-carboxamide]",31 nM
3,"COc1ccc(NC(=O)c2c[nH]c3c2C(=O)CCC3)cc1F [Compound 26, N-(3-Fluoro-4-methoxyphenyl)-4-oxo-4,5,6,7-tetrahydro-1H-indole-3-carboxamide]",3 nM
4,"CC1(C)CCc2[nH]cc(C(=O)Nc3ccc(O)cc3)c2C1=O [Compound 86, N-(4-Hydroxyphenyl)-4-oxo-5,5-dimethyl-4,5,6,7-tetrahydro-1H-indole-3-carboxamide]",2 nM
5,"O=C(Nc1ccccc1F)c1c[nH]c2c1C(=O)CCCC2 [Compound 93, N-(2-Fluorophenyl)-4-oxo-1,4,5,6,7,8-hexahydro-cyclohepta[b]pyrrole-3-carboxamide]",6 nM
6,"COc1cccc(NC(=O)c2c[nH]c3c2C(=O)CCCC3)c1 [Compound 96, N-(3-Methoxyphenyl)-4-oxo-1,4,5,6,7,8-hexahydro-cyclohepta[b]pyrrole-3-carboxamide]",29 nM
7,"O=C(Nc1ccccc1)c1c[nH]c2c1C(=O)CCC2 [Compound 35, N-Phenyl-4-oxo-4,5,6,7-tetrahydro-1H-indole-3-carboxamide]",2 nM
8,"CNc1ccc(NC(=O)c2c[nH]c3c2C(=O)CCC3)cc1 [Compound 74, N-[4-(Methylamino)phenyl]-4-oxo-4,5,6,7-tetrahydro-1H-indole-3-carboxamide]",18 nM
9,"O=C(Nc1ccccc1O)c1c[nH]c2c1C(=O)CCC2 [Compound 62, N-(2-Hydroxyphenyl)-4-oxo-4,5,6,7-tetrahydro-1H-indole-3-carboxamide]",0.8 nM
10,"Cc1ccc(NC(=O)c2c[nH]c3c2C(=O)CCC3)c(F)c1 [Compound 72, N-(2-Fluoro-4-methylphenyl)-4-oxo-4,5,6,7-tetrahydro-1H-indole-3-carboxamide]",26 nM
11,"COc1ccc(NC(=O)c2c[nH]c3c2C(=O)C(C)(C)CC3)c(F)c1 [Compound 30, N-(2-Fluoro-4-methoxyphenyl)-4-oxo-5,5-dimethyl-4,5,6,7-tetrahydro-1H-indole-3-carboxamide]",10 nM
12,"CC1(C)CCc2[nH]cc(C(=O)Nc3ccccc3F)c2C1=O [Compound 81, N-(2-Fluorophenyl)-4-oxo-5,5-dimethyl-4,5,6,7-tetrahydro-1H-indole-3-carboxamide]",14 nM
13,"CCOc1ccc(NC(=O)c2c[nH]c3c2C(=O)CCCC3)c(F)c1 [Compound 102, N-(2-Fluoro-4-ethoxyphenyl)-4-oxo-1,4,5,6,7,8-hexahydro-cyclohepta[b]pyrrole-3-carboxamide]",37 nM
14,"O=C(Nc1ccccc1F)c1c[nH]c2c1C(=O)CCC2 [Compound 46, N-(2-Fluorophenyl)-4-oxo-4,5,6,7-tetrahydro-1H-indole-3-carboxamide]",3 nM
